Results reported in patent publication US4002740A, “Tridecapeptide compositions and methods” (priority 1975, dated 1977).
“Also recorded” adds a separate entry of the source. Ends that are not written are not given here.

How the values were obtained:
[1] = test system: CR+ B cell differentiation from CR- B cell precursors (spleen cell populations from nu/nu mice); assay: induction in vitro of CR+ B cell differentiation from CR- B cell precursors (binding of sheep erythrocytes coated with antibody and complement); type: cell-based
Procedure: (§1) to determine the activity and characteristics of the polypeptide, determinations were carried out on healthy 5-6 week old nu/nu mice of both sexes, the mice being bred on a BALB/c background (thymocytes expressing Thy-1.2 surface antigen) and maintained under conventional conditions. For the antisera, anti Thy-1.2 sera were prepared in Thy-1 congenic mice.
(§2) For the induction of in vitro of Thy-1^+ T cell or CR^+ B cell differentiation, the induction of thymocyte differentiation from prothymocytes in vitro was performed as described by Komuro and Boyse, (Lancet 1, 740, 1973), using the acquisition of Thy-1.2 as a marker of T cell differentiation. The induction of CR^+ B cell differentiation from CR^- B cell precursors in vitro was performed under similar conditions using as the assay criterion, the capacity of CR^+ B cells to bind sheep erythrocytes coated with subagglutinating quantities of rabbit antibody and nonlytic complement. Spleen cell populations from healthy nu/nu mice fractionated on discontinuous bovine serium albumin gradients were used as the source of both precursor types (Thy-1 and […]) because they have few or no Thy-1^+ cells and low numbers of CR^+ cells.

[2] = test system: Thy-1+ T cell differentiation from prothymocytes (spleen cell populations from nu/nu mice); assay: induction in vitro of Thy-1+ T cell differentiation from prothymocytes (acquisition of Thy-1.2 as marker); type: cell-based; conditions: for induction of T cell differentiation (qualitative): induction assay in vitro, no concentration stated
Procedure: as §1, §2

GEQRKDVYVQLYL [tridecapeptide, H2 N--Gly--Glu--Gln--Arg--Lys--Asp--Val--Tyr--Val--Gln--Leu--Tyr--Leu--COOH]
induction of differentiation of CR+ B cells ([1]; in vitro, concentrations 0.01 ng to 10 μg/ml): does not induce; also recorded: did not induce | induction of CR+ B cell differentiation (qualitative) ([1]; induction assay in vitro, no concentration stated, listed as synthetic peptide): did not induce | concentration from which the polypeptide is maximally active ([2]; in vitro): about 100 nanogram per ml | concentration from which the polypeptide is active ([2]; in vitro, lower end of active concentrations): 1 nanogram per ml | induction of T cell differentiation (qualitative) ([2]; listed as polypeptide): inducing the differentiation of T-lymphocytes | induction of T cell differentiation (qualitative) ([2]; listed as synthetic peptide): induced the differentiation
